The text below walks through data of patent US8765765B2, “Metabolites of (thio) carbamoyl-cyclohexane derivatives” (Richter Gedeon Nyrt., priority 2007, dated 2014).

The target in assay [1] is T1, rat recombinant D3 receptors (expressed in Sf9 cells) (Rattus norvegicus, UniProt P19020).
T1 construct: purchased Packard BioScience, BioSignal Packard Inc. 6110139; host or cells: Sf9 cells
In words: D3 receptor binding, [3H]-spiperone. The conditions noted are these: rat recombinant D3, [3H]-spiperone 0.85 nM; read-out: rD3 Ki. How it is done: Binding assays were carried out on rat recombinant D3 receptors (expressed in Sf9 cells) according to the supplier instructions (Packard BioScience, BioSignal Packard Inc. Cat. No. 6110139, Technical Data Sheet) using [^3H]-spiperone (0.85 nM) as ligand and haloperidol (10 μM) for determination of non-specific binding.

Assay [2] deals with T2, D2 receptor (rat brain striatal membrane preparation) (Rattus norvegicus, UniProt P61169).
T2 construct: on rat brain striatal membrane preparation; from tissue; host or cells: rat brain striatum membranes
T2 sequence (P61169 whole entry): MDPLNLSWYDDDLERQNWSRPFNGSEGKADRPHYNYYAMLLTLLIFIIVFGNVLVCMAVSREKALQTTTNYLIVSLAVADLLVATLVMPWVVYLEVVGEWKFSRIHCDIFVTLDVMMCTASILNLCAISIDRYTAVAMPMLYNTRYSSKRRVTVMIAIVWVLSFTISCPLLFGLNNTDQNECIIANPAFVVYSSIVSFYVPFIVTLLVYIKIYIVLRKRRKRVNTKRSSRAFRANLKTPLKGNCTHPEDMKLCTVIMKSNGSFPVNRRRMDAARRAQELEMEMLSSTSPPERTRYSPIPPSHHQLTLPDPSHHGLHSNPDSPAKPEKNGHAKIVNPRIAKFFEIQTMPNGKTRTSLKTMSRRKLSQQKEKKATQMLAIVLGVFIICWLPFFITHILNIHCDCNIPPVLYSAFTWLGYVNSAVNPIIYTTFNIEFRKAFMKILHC
The assay can be described thus: D2 receptor binding, [3H]-spiperone. To be noted: rat brain striatal membranes, [3H]-spiperone 0.6 nM; read-out: rD2 Ki. How it is done:
D2 receptor binding assay was carried out as described by Creese et al., European Journal of Pharmacology, 60, 55-66, 1979) on rat brain striatal membrane preparation using [^3H]-spiperone (0.6 nM) as ligand. The non-specific binding was determined in the presence of 1 μM (+)-butaclamol.

The target in assay [3] is Alpha-1 receptor (rat brain cortical membrane preparation). In words: Alpha-1 receptor binding, [3H]-prasosin. The conditions noted are these: rat brain cortical membranes, [3H]-prasosin 0.5 nM. How it is done: 3. Alpha-1 Receptor Binding
Alpha-1 receptor binding study was performed according to the method described by Greengrass and Bremmer (European Journal of Pharmacology 55:323-326, 1979) on rat brain cortical membrane preparation using [^3H]-prasosin (0.5 nM) as ligand. The non-specific binding was determined in the presence of 10 μM phentolamine.

A further assay concerns dopamine D3/D2 receptor. The conditions noted are these: background statement; cited from earlier work.
A further assay concerns the target 5-HT2C (Homo sapiens, UniProt P28335). The conditions noted are these: background statement; cited from earlier work.
A further assay has as its target histamine H1 (Homo sapiens, UniProt P35367). The conditions noted are these: background statement; cited from earlier work.
The subject of assay [4] is adrenergic receptor sites. The conditions noted are these: background statement; cited from earlier work.

T1 sequence (P19020 whole entry): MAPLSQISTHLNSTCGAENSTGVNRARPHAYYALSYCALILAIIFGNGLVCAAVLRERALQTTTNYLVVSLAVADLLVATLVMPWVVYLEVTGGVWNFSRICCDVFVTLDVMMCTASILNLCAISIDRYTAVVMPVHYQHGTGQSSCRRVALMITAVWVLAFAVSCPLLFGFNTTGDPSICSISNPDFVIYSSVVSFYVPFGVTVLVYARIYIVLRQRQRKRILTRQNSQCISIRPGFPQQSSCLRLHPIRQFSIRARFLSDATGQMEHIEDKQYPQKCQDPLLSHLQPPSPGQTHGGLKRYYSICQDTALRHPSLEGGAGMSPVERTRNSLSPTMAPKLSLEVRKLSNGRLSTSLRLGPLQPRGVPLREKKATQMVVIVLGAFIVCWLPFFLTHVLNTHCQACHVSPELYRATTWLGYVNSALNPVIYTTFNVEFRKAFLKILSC
Sequence of histamine H1 (P35367 whole entry): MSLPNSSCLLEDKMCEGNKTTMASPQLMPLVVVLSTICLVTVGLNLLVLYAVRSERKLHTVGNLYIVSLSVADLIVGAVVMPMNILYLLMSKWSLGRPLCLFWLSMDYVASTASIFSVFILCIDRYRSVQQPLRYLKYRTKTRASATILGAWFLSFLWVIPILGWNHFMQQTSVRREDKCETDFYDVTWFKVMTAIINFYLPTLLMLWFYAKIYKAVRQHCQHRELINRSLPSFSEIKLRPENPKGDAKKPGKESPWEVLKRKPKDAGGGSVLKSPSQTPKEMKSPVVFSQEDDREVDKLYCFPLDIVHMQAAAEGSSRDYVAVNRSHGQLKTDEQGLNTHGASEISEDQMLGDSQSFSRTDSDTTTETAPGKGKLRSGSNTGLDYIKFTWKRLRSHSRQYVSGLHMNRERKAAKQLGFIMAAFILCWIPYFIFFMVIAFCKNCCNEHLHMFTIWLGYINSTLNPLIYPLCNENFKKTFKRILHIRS
Sequence of 5-HT2C (P28335 33-458, species assumed): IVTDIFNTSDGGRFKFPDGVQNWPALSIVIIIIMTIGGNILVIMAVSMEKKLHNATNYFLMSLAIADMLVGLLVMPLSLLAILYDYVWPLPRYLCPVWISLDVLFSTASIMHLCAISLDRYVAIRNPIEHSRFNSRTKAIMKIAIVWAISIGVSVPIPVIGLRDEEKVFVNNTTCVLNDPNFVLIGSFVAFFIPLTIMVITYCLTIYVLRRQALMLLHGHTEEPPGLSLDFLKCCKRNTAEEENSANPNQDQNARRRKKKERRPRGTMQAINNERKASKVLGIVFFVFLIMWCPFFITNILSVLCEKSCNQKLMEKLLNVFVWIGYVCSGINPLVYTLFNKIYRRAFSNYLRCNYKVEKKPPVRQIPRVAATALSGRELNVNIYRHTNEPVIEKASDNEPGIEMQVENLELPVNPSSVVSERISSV

Turning to `NC(=O)N[C@H]1CC[C@H](CCN2CCN(c3ccc(O)c(Cl)c3Cl)CC2)CC1` [Compound A, Trans-1-{4-[2-[4-(2,3-dichloro-4-hydroxy-phenyl)-piperazin-1-yl]-ethyl]-cyclohexyl}-urea], the inhibitory constant (Ki) was 0.26 nM in assay [1], 8.4 nM in assay [2] and > 1000 nM in assay [3].

Take `CNC(=O)N[C@H]1CC[C@H](CCN2CCN(c3ccc(O)c(Cl)c3Cl)CC2)CC1` [Compound B, Trans-1-{4-[2-[4-(2,3-dichloro-4-hydroxy-phenyl)-piperazin-1-yl]-ethyl]-cyclohexyl}-3-methyl-urea]: the Ki in assay [1] was 0.24 nM; in assay [2], 2.49 nM; in assay [3] it was > 1000 nM.

Take `CN(C)C(=O)N[C@H]1CC[C@H](CCN2CCN(c3ccc(O)c(Cl)c3Cl)CC2)CC1` [Compound C, Trans-1-{4-[2-[4-(2,3-dichloro-4-hydroxy-phenyl)-piperazin-1-yl]-ethyl]-cyclohexyl}-3,3-dimethyl-urea]: the Ki in assay [1] was 0.37 nM; in assay [2], 80.5 nM; in assay [3], > 1000 nM.

`CN(C)C(=O)N[C@H]1CC[C@H](CC[N+]2([O-])CCN(c3cccc(Cl)c3Cl)CC2)CC1` [Compound D, Trans-1-{4-[2-[4-(2,3-dichlorophenyl)-1-oxo-piperazin-1-yl]-ethyl]-cyclohexyl}-3,3-dimethyl-urea]: the results for the inhibitory constant (Ki) in assay [1], in assay [2] and in assay [3] were > 10 nM, > 100 nM and > 1000 nM, respectively.

With `CN(C)C(=O)NC1CCC(CCN2CCN(c3cccc(Cl)c3Cl)CC2)CC1.Cl` (stereo not drawn) [trans-4-{2-[4-(2,3-dichlorophenyl)-piperazin-1-yl]-ethyl}-N,N-dimethylcarbamoyl-cyclohexylamine hydrochloride], the “D3 receptor antagonism relative to D2 receptor antagonism” value in the assay with dopamine D3/D2 receptor is given as “about one order of magnitude greater”. On 5-HT2C, the “potency at 5-HT2C receptor site” value is on record as “low potency”. On histamine H1, the “potency at histamine H1 receptor site” value is recorded as “low potency”. Besides, in assay [4], the “potency at adrenergic receptor sites” value was “low potency”.

As usually defined, the Ki is a dissociation constant, usually derived from enzyme kinetics or from competition with a known ligand.
